Source: the supplement of paper PMC10307832

Each cell line was assayed with CO[C@@H]1[C@H](N(C)C(=O)c2ccccc2)C[C@H]2O[C@]1(C)n1c3ccccc3c3c4c(c5c6ccccc6n2c5c31)C(=O)NC4 [Midostaurin] + CC(C)C[C@H](NC(=O)[C@H](Cc1ccccc1)NC(=O)c1cnccn1)B(O)O [Bortezomib] (partner 0.002 µM) (assay: relative viability (nuclei count vs DMSO), 5 days (fraction); higher = more cells survive). Conditions: first compound 0.1 µM.
Outline: (§1)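 Lung cancer cell lines were pin-tool dosed in 1536-well plates on the day after seeding, with either a lone drug or a fixed anchor-drug dose plus five library-drug doses (not always all listed) in √10 steps. Nuclei were counted on 4× images after 5 days. Relative viability is the ratio of treated-well to vehicle-well nuclei counts, with each value a median of duplicate plates.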
NCI-H1755 showed a relative viability of 0.887.
HCC-15 showed a relative viability of 0.999.
With PC-14 the relative viability was 0.811.
In the case of EKVX, the relative viability is reported as 0.947.
Cell Line LC-2-ad has a relative viability of 0.995.
Cell Line NCI-H1975 has a relative viability of 0.446.
RERF-LC-KJ showed a relative viability of 1.16.
With NCI-H650 the relative viability was 0.734.
With PC-3 [JPC-3] the relative viability was 0.683.

Same assay, conditions: first compound 0.3162 µM
NCI-H1755 was tested, and the relative viability was 0.755.
Work on HCC-15 yielded a relative viability of 1.08.
Work on PC-14 yielded a relative viability of 0.815.
Work on EKVX yielded a relative viability of 0.9.
With LC-2-ad the relative viability was 1.
Cell Line NCI-H1975 has a relative viability of 0.322.
RERF-LC-KJ gave a relative viability of 1.23.
Work on NCI-H650 yielded a relative viability of 0.625.
For PC-3 [JPC-3], the relative viability was 0.85.

The cell lines below were run with COc1cc(-c2nn([C@H]3CC[C@H](N4CCN(C(C)=O)CC4)CC3)c3ncnc(N)c23)ccc1NC(=O)c1cc2ccccc2n1C + C[C@@H](Oc1cc(-c2cnn(C3CCNCC3)c2)cnc1N)c1c(Cl)ccc(F)c1Cl [Crizotinib] (partner 1 µM) in the same assay as above. Conditions: first compound 0.0128 µM.
Outline: as §1
Cell Line NCI-H1755 has a relative viability of 1.
HCC-15 was tested, and the relative viability was 0.89.
Cell Line PC-14 has a relative viability of 0.941.
EKVX showed a relative viability of 0.986.
In the case of LC-2-ad, the relative viability is reported as 0.443.
In the case of NCI-H1975, the relative viability is reported as 0.869.
RERF-LC-KJ showed a relative viability of 0.897.
In the case of NCI-H650, the relative viability is reported as 0.665.
PC-3 [JPC-3] gave a relative viability of 1.05.

Same assay, conditions: first compound 0.04048 µM
Work on NCI-H1755 yielded a relative viability of 0.795.
In the case of HCC-15, the relative viability is reported as 0.772.
In the case of PC-14, the relative viability is reported as 0.98.
Cell Line EKVX has a relative viability of 1.04.
For LC-2-ad, the relative viability was 0.399.
Work on NCI-H1975 yielded a relative viability of 1.18.
With RERF-LC-KJ the relative viability was 0.914.
For NCI-H650, the relative viability was 0.716.
Work on PC-3 [JPC-3] yielded a relative viability of 1.09.

Same assay, conditions: first compound 0.128 µM
Work on NCI-H1755 yielded a relative viability of 0.875.
Work on HCC-15 yielded a relative viability of 0.808.
With PC-14 the relative viability was 0.965.
For EKVX, the relative viability was 0.755.
LC-2-ad was tested, and the relative viability was 0.414.
NCI-H1975 was tested, and the relative viability was 0.966.
RERF-LC-KJ gave a relative viability of 0.742.
With NCI-H650 the relative viability was 0.603.
PC-3 [JPC-3] gave a relative viability of 0.968.

Same assay, conditions: first compound 1.28 µM
In the case of NCI-H1755, the relative viability is reported as 0.616.
HCC-15 showed a relative viability of 0.67.
PC-14 showed a relative viability of 0.87.
In the case of EKVX, the relative viability is reported as 0.359.
Work on LC-2-ad yielded a relative viability of 0.409.
For NCI-H1975, the relative viability was 0.424.
For RERF-LC-KJ, the relative viability was 0.846.
In the case of NCI-H650, the relative viability is reported as 0.739.
Work on PC-3 [JPC-3] yielded a relative viability of 1.08.

Each cell line was assayed with CO[C@@H]1[C@H](N(C)C(=O)c2ccccc2)C[C@H]2O[C@]1(C)n1c3ccccc3c3c4c(c5c6ccccc6n2c5c31)C(=O)NC4 [Midostaurin] + CC(=O)Nc1cccc(-n2c(=O)n(C3CC3)c(=O)c3c(Nc4ccc(I)cc4F)n(C)c(=O)c(C)c32)c1 [Trametinib] (partner 0.02 µM) in the same assay as above. Conditions: first compound 0.01 µM.
Outline: as §1
Cell Line NCI-H1755 has a relative viability of 0.75.
HCC-15 showed a relative viability of 0.411.
Cell Line PC-14 has a relative viability of 0.707.
EKVX gave a relative viability of 0.321.
LC-2-ad gave a relative viability of 0.906.
NCI-H1975 gave a relative viability of 0.344.
Cell Line RERF-LC-KJ has a relative viability of 0.854.
With NCI-H650 the relative viability was 1.03.
In the case of PC-3 [JPC-3], the relative viability is reported as 0.684.

Same assay, conditions: first compound 0.03162 µM
NCI-H1755 gave a relative viability of 0.811.
Work on HCC-15 yielded a relative viability of 0.353.
PC-14 gave a relative viability of 0.914.
In the case of EKVX, the relative viability is reported as 0.348.
LC-2-ad was tested, and the relative viability was 0.918.
NCI-H1975 showed a relative viability of 0.388.
RERF-LC-KJ was tested, and the relative viability was 0.921.
NCI-H650 was tested, and the relative viability was 1.07.
Work on PC-3 [JPC-3] yielded a relative viability of 0.722.

Same assay, conditions: first compound 0.1 µM
In the case of NCI-H1755, the relative viability is reported as 0.798.
HCC-15 showed a relative viability of 0.367.
Work on PC-14 yielded a relative viability of 0.692.
EKVX showed a relative viability of 0.292.
LC-2-ad gave a relative viability of 0.749.
In the case of NCI-H1975, the relative viability is reported as 0.357.
For RERF-LC-KJ, the relative viability was 0.84.
With NCI-H650 the relative viability was 1.
Cell Line PC-3 [JPC-3] has a relative viability of 0.699.

Same assay, conditions: first compound 0.3162 µM
Work on NCI-H1755 yielded a relative viability of 0.72.
HCC-15 gave a relative viability of 0.372.
PC-14 showed a relative viability of 0.635.
In the case of EKVX, the relative viability is reported as 0.351.
For LC-2-ad, the relative viability was 0.9.
In the case of NCI-H1975, the relative viability is reported as 0.416.
With RERF-LC-KJ the relative viability was 0.806.
NCI-H650 was tested, and the relative viability was 0.945.
Cell Line PC-3 [JPC-3] has a relative viability of 0.814.
